From patent publication US9233166B2, “Supramolecular functionalization of graphitic nanoparticles for drug delivery” (The Board of Trustees of the Leland Stanford Junior …, priority 2007, dated 2016) come the findings set out here.

The subject of data set [1] is OVCAR-3 ovarian cancer cell line. The data set can be described thus: MTS cell toxicity assay, OVCAR-3. It counts as cell-based. The note with it: Homo sapiens, 72 h drug incubation. As to the method:
(§1) HCT-116 colon cancer cell line, OVCAR-3 ovarian cancer cell line, U87MG glioma cell line and MDA-MB-435 breast cancer cell line were all obtained from American Type Culture Collect (ATCC) and cultured in the recommended conditions. […] After incubation for 72 hours, relative cell viability was measured by standard MTS assay using a CellTiter 96 kit (promega). For NGO-PEG toxicity test, cell medium containing NGO-PEG was changed to fresh medium at 72 h before cell viability test to avoid the dark color of NGO-PEG at high concentrations, which interferes the absorbance reading in MTS assay.

The subject of another data set is U87MG glioma cell line. The data set can be described thus: MTS cell toxicity assay, U87MG. The note with it: Homo sapiens, U-87 MG, 72 h drug incubation. It counts as cell-based. The procedure: as §1
In general terms: Formazan colour is commonly taken as a measure of viable cells.

Data set [2] deals with MDA-MB-435 breast cancer cell line. The data set can be described thus: MTS cell toxicity assay, MDA-MB-435. Format: cell-based. The settings on record: Homo sapiens, MDA-MD-435 (breast), 72 h drug incubation. The procedure: as §1
Data set [3] concerns HCT-116 colon cancer cell line. The data set can be described thus: MTS cell toxicity assay, HCT-116. Format: cell-based. The note with it: Homo sapiens. As to the method: as §1
The nature of data set [4]: Water solubility of NGO-PEG-SN38. Format: physicochemical. The note with it: in terms of SN38. The text has this: The existence of aromatic conjugated domains on GO has been shown by NMR previously (Lerf, A.; He, H. Y.; Forster, M.; Klinowski, J., J. Phys. Chem. B, 1998, 102, 4477-4482).
A further data set deals with MCF-7 cells. The data set can be described thus: MTS cell viability assay, MCF-7 cells (SWNT-DOX formulations). The settings on record: integrin αvβ3 negative. Format: cell-based.
The test system of data set [5] is Raji B-cell lymphoma tumors. The data set can be described thus: In vivo treatment of Raji tumor bearing SCID mice. The procedure:
Each SCID mouse was subcutaneously injected with 10 million Raji cells on its back. The treatment was initiated when the tumors reached sizes of ˜400 mm^3 (2-3 weeks after tumor inoculation). The tumor bearing mice were i.v. injected with different formulations of DOX including free DOX, SWNT-DOX and Doxil at 5 mg/kg of normalized DOX dose (or 10 mg/kg for SWNT-DOX) as well as related controls weekly. The tumor sizes were measured by a caliper three times a week and calculated as the volume=(tumor length)×(tumor width)^2/2. Relative tumor volumes were calculated as V/V0 (V0 was the tumor volume when the treatment was initiated). Mice were weighed with the relative body weights normalized to their initial weights.
Raji tumor bearing SCID mice were treated with different formulations of DOX at the weekly by i.v. injection. Plain SWNT and separated injections of plain SWNT plus free DOX were used as the controls. The tumor sizes were normalized to their initial size when the treatment was started (FIG. 26A-D).

For data set [6] the following is noted: mouse, in vivo, iv.
Method: Blood circulation was measured by drawing ˜15 μl blood from the tail vein of Raji tumor bearing SCID mice post injection of free DOX or SWNT-DOX. The blood samples were dissolved in a lysis buffer 1 (1% SDS, 1% Triton X-100, 40 mM Tris Acetate, 10 mM EDTA, 10 mM DTT) with brief sonication. Concentration of SWNTs in the blood was measured by a Raman method. […] In brief, DOX was extracted by incubating blood samples in 1 ml of 0.75 M HCl in isopropanol (IPA) at −20° C. overnight. After centrifuge at 24,000 g for 15 minutes, the supernatant was taken for fluorescence measurement using a fluorolog-3 fluorometer. A standard calibration curve with obtained by measuring fluorescence of extraction solutions with known DOX concentrations. DOX loaded on SWNTs can be completely pulled from nanotubes by the extraction solution with ˜100% recover of fluorescence (DOX fluorescence is quenched once loaded on nanotubes).
Blood circulation data were plotted as the blood DOX or SWNT levels (unit: % ID/g) against time p.i. […]
We injected free DOX or SWNT-DOX to Raji tumor bearing SCID mice by intravenous (i.v.) injection via tail veins. Blood was drawn at different time points post injection (p.i.) with DOX concentrations measured by fluorescence spectra.
Data set [7] can be described thus: Absorbance of free doxorubicin on heating. Format: physicochemical. The note with it: after 24 hours. The procedure: The diameter distributions of two types of SWNTs were obtained by AFM topographic height measurements of ˜100 PL-PEG functionalized nanotubes in each material, after depositing them on Si substrates from solutions (FIG. 12). Both Laser PL-SWNT-DOX and Hipco PL-SWNT-DOX (DOX loaded at pH=9) were incubated in PBS and kept at various temperatures (20° C., 40° C., 60° C., 80° C.). Released doxorubicin was removed at different time points and the retained doxorubicin was measured by UV-VIS-NIR to get temperature dependent releasing curves (FIGS. 13A and 13B). […] This was corrected in obtaining our release curves. The half-lives (t1/2) of doxorubicin on PEGylated SWNTs at various temperatures were obtained by fitting the releasing curves to exponential decays. We then used Arrhenius fits of 1/t1/2(T)=A×exp(−EB/kBT) where A is a constant for extracting binding energy EB of DOX on the PEGylated Hipco and laser-ablation nanotubes.

The next data set has as its system 4T1 tumors. The data set can be described thus: In vivo treatment of 4T1 murine breast cancer model. The note with it: PTX 5 mg/kg every 6 days. Also on record: species or system Balb/c mice. As to the method: Female Balb/c mice with implanted 4T1 tumors were treated with the compositions shown in the graphs at the same PTX dose (5 mg/kg, every 6 days). […] No obvious side effects were seen. No mouse in the treatment group died, and no average drop in body weigh was seen (FIG. 19). The tumor growth curves were obtained with 5 mice in each group to get the average tumor volumes and standard deviations.
All animal experiments were performed under a protocol approved by Stanford's Administrative Panel on Laboratory Animal Care (APLAC). The 4T1 tumor models were generated by subcutaneous injection of 2×10^6 cells in 50 μl PBS into the right shoulder of female Balb/c mice. The mice were used for treatment when the tumor volume reached 50-100 mm^3 (˜6 days after tumor inoculation). […] The tumor sizes were measured by a caliper every the other day and calculated as the volume=(tumor length)×(tumor width)^2/2. Relative tumor volumes (FIG. 24) were calculated as V/V0 (V0 was the tumor volume when the treatment was initiated).
The mice were observed daily for clinical symptoms and the tumor volume was measured by a digital caliper every other day.

Data set [8] has as its system Raji B-cells. The data set can be described thus: MTS cell viability assay, Raji cells (NGO-PEG-Rituxan/DOX). Format: cell-based. The note with it: 2 uM and 10 uM DOX, vs free DOX, NGO-PEG/DOX and unconjugated mixture. As to the method:
Doxorubicin (DOX) loading onto NGO-PEG (and NGO-PEG-Rituxan) was done by simply mixing 0.5 mM of DOX with the NGO-PEG solution (˜0.2 mg/ml) at pH 8 overnight. Unbound excess DOX was removed by filtration through a 100 kDa filter and repeated rinse. The formed NGO-PEG/DOX complexes were re-suspended and stored at 4° C. Concentration of DOX loaded onto NGO-PEG was measured by the absorbance peak at 490 nm (characteristic of DOX, after subtracting the absorbance of NGO-PEG at that wavelength) with a molar extinction coefficient of 1.05×104 M·cm-1. Both Raji and CEM cells were incubated with free DOX, NGO-PEG/DOX, NGO-PEG/DOX+Rituxan (unconjugated) and NGO-PEG-Ri/DOX at DOX concentrations of 2 μM or 10 μM for 2 hours and washed by PBS twice before transferring into fresh cell medium. After another 48 h incubation, Cell viability was measured by the MTS assay with CellTiter96 kit (Promega).
For DOX loaded onto NGO-PEG-rituximab, we incubated the conjugates with Raji cells at 2 uM and 10 uM DOX concentrations.

Data set [9] has as its system Raji B-cells. The data set can be described thus: NIR photoluminescence imaging of cell binding. Format: cell-based. The note with it: 4° C., Raji B-cells vs CEM T-cells. As to the method:
We covalently conjugated a B-cell specific antibody, Rituxan® rituximab (anti-CD20) to NGO-PEG (NGO-PEG-rituximab) to selectively recognize and bind to B cell lymphoma cells. We incubated B-cells and T-cells in solutions of NGO-PEG-rituximab conjugates at 4° C. to allow the conjugates to interact with the cell surface but block internalization via endocytosis. The cells were then washed and imaged by detecting NIR photoluminescence from 1100 to 2200 nm using an InGaAs detector under 658 nm excitation (laser spot size ˜1 μm). […] This confirmed selective NGO-PEG-Ab binding to B-cells over T cells. […] Nevertheless, the fluorescence quantum yield (QY) in the NIR-IR region appeared low.
Thiolated Rituxan® was conjugated to the amine groups on NGO-PEG via a sulfo-SMCC linker (Pierce Inc.). […] All NIR fluorescence images were taken using an inverted NIR fluorescence microscope in confocal mode. […] The collected light went through a 900 nm long pass filter (Omega) and a 1100 nm long pass filter (ThorLabs) to block reflected excitation and reduce background fluorescence from the sample holder. […] Background fluorescence from the sample holder (˜160 counts) was subtracted to give relevant statistics about the effectiveness of NGO-PEG binding.

The mark [10] stands for this setting: HCT-116 (colon), 72 h drug incubation, read-out: IC50 values.

pIC50: −log10 of the molar value. Several values for one entry are separate records, joined by “and”; a condition that tells them apart may be missing. Equal entries are not always repeated. Where two headings read alike, the source gives them in different places.

Method for MCF-7 cells: MCF-7 breast cancer cells and U87MG human glioblastoma cancer cells (both from American Type Culture Collection, ATCC) were cultured under standard conditions. Cell viability after various treatments was measured by the MTS assay with CellTiter96 kit (Promega).

In the case of `CCc1c2c(nc3ccc(OC(=O)N4CCC(N5CCCCC5)CC4)cc13)-c1cc3c(c(=O)n1C2)COC(=O)[C@]3(O)CC` [CPT-11, irinotecan], the pIC50 in data set [1] is 5.52; in the data set on U87MG glioma cell line, < 4.70; in data set [2], 5.22; in data set [3] (HCT-116, 72 h, read-out: 50% growth inhibition concentration (IC50)) it was ~5.00; in data set [3] (setting [10]), 4.96.

For `CCc1c2c(nc3ccc(O)cc13)-c1cc3c(c(=O)n1C2)COC(=O)[C@]3(O)CC` [SN38, 7-ethyl-10-hydroxycamptothecin], the pIC50 in data set [1] was 9.52; in the data set with U87MG glioma cell line, 7.17; in [2], 8.52; in [3] (setting [10]), 7.82. In addition, the water solubility result in [4] is “very insoluble in water”.

In the case of `COc1cccc2c1C(=O)c1c(O)c3c(c(O)c1C2=O)C[C@@](O)(C(=O)CO)C[C@@H]3O[C@H]1C[C@H](N)[C@H](O)[C@H](C)O1` [free DOX, doxorubicin], the “toxicity (concentration dependent survival)” value in the data set with MCF-7 cells is “higher toxicity than both PL-SWNT-DOX and PL-SWNT-RGD-DOX”. Moreover, the mice death in [5] (5 mg/kg) is 2 out of 10 and 2. The “tumor growth (folds of initial size)” value in data set [5] (5 mg/kg DOX weekly i.v., in two weeks) came to 2.90±0.19 folds. Besides, the body weight loss in data set [5] (5 mg/kg, within two weeks) was ~20%. The “mouse death and body weight drop” value in [5] (10 mg/kg) is recorded as “all the tested mice died within 2 weeks”. In addition, in data set [6], the DOX circulation half-life turned out to be 12.6 min and the “total area under curve (AUC0-∞)” value is 5300 ng·h/mL. In data set [7] (60° C.), the “drop of absorbance on heating” value is ~30%. The “drop of absorbance on heating” value in data set [7] (80° C.) was ~50%.

On to `CC(=O)O[C@H]1C(=O)[C@@]2(C)[C@H]([C@H](OC(=O)c3ccccc3)[C@]3(O)C[C@H](OC(=O)[C@H](O)[C@@H](NC(=O)c4ccccc4)c4ccccc4)C(C)=C1C3(C)C)[C@]1(OC(C)=O)CO[C@@H]1C[C@@H]2O` [free PTX, paclitaxel], for which the lung metastasis result with 4T1 tumors is listed as “obvious lung metastasis was observed”.

With NGO-PEG-Rituxan/DOX, the “DOX delivery and cell killing” value with Raji B-cells [8] was “Much enhanced DOX delivery and cell killing”.

Turning to NGO-PEG-rituximab, the “cell surface binding (NIR photoluminescence)” value in the data set with Raji B-cells [9] was “selectively on positive Raji B-cells surface and not on negative CEM T-cells”.
